From patent US7642066B2, “High throughput pharmaceutical screening using drosophila” (Washington University, priority 2004, dated 2010)
“Also recorded” adds a separate entry of the source.

Columns and labels:
wild-type Drosophila [1] = system: wild-type Drosophila; set-up: species or system Drosophila melanogaster; conditions: in vivo
Method: (§1) Into each well is pipetted 50-400 μl of either standard (control) or high glucose (experimental) Drosophila growth medium. A range of 50-400 μl is a balance between (1) providing sufficient food so as not to place undue feeding stress on the developing flies and (2) providing sufficient air space for the third larval instars to find sufficient wall space to pupate. Any one of several standard Drosophila growth medium recipes as known in the art of breeding Drosophila for research can be used. A known recipe for a standard growth medium includes, for example, water: 1 liter, cornmeal: 61 grams, yeast: 32 grams, agar: 9.3 grams, glucose: 129 grams (or molasses: 67 grams), methyl p-hydrobenzoate: 2.7 grams, and propionic acid: 0.05 liters. A high glucose growth medium is, for example, such a standard Drosophila growth medium supplemented with an additional 1 mole glucose. For example, to prepare a high glucose growth medium, an additional 180 grams of glucose is added to the recipe for standard growth medium as just described. Another embodiment, for example, of a standard growth medium is that prepared as follows: 1 gram agar, 8 grams brewers yeast, 2 grams yeast extract, 2 grams peptone, 3 grams sucrose, 6 grams glucose, 0.05 grams MgSO4×6H20, 0.05 grams CaCl2×2H20, 600 microliters propionic acid, 1 milliliter 10% p-Hydroxy-benzoic acid methyl ester in 95% ethanol, brought to 100 milliliters with water. A high glucose version of this medium is made, for example, by combining 75 milliliters of this medium with 25 milliliters of a 4 molar glucose solution in water.
Alternatively, the experimental growth medium is any growth medium containing an excess amount of a sugar or sugars selected from hexose sugars such as fructose, sorbitol, galactose and glucosamine, and from complex sugars such as sucrose, lactose or maltose.
The addition of 1 molar (1 M) glucose to the Drosophila growth media delayed pupariation, which reached significant levels at day 10 and high levels at day 11.
The developmental arrest can be screened as described in the Examples, infra. Glucose, for example, induces readily observable delays in pupariation as determined by the timing of significant eclosion, and peak eclosion. For example, control Drosophila embryos show significant eclosion beginning at day 8, while Drosophila embryos exposed to high glucose growth medium show significant eclosion beginning at day 11 (1 molar glucose). Similarly, peak eclosion is delayed, for example, from day 10 in controls, to day 12 (1 molar glucose). Thus, candidate compounds are screened by observing changes to the delay in significant eclosion and peak eclosion, as compared to the developmental delay induced by high glucose.
Accordingly, the ability of the hexose sugars fructose, sorbitol, galactose and glucosamine was tested by adding amounts of each sugar to the standard Drosophila growth medium. Fructose and sorbitol induced a 48-hour developmental delay at concentrations similar to those at which glucose induced developmental delay (data not shown).

wild-type Drosophila [2] = test: Drosophila high throughput screen: effect of compound on glucose-mediated delay in pupariation; type: in vivo, Drosophila melanogaster; conditions: for significant levels of pupariation / high levels of pupariation: 1 M glucose, FIG. 2; for effect on glucose-mediated developmental delay / delay in pupariation: high glucose (1 M glucose in growth media)
Method: Accordingly, methods and related articles of composition for high throughput screening assays involve the preparation of microtiter plates each with multiple wells, wherein each well initially contains one or more wild type Drosophila embryos and an amount of a high glucose Drosophila growth medium. The embryos develop while feeding on the high glucose growth medium. The precise age of the embryos at the time they are plated matters less than the fact that they are all about the same age, to permit accurate evaluation of the possible effects of the candidate compound on larval development.
To prepare the microtiter plates, for example, 96-well microtiter plates are used, such as those commonly commercially available and typically used for various laboratory assay techniques, including other high throughput drug assay techniques. A suitable example is a Falcon #3912 flexible 96-well plate. However, other multiple-well microtiter plates can be used.
as §1
A candidate compound, or cocktail of more than one compound, that has been selected for screening is dissolved in EtOH or prepared in DMSO/Aqueous solution. In an exemplary embodiment, EtOH is used. Although DMSO can be used, it can be toxic if it reaches final concentrations of more than 0.3% of the growth medium. The compound in solution is added and allowed to diffuse through the growth medium for an initial period of about 16-24 hours. Wild type Drosophila embryos are collected en masse and, after the initial period of diffusion of the candidate compound through the growth medium, sorted several to a well. In an exemplary embodiment, five to twenty embryos are sorted to each well. However, the number of embryos in each well can easily vary, provided that no more embryos than will flourish in the well are used. The number of embryos per well will also be influenced by the need to obtain a sufficient number of data points to make the test meaningful.
Once the Drosophila embryos are placed into each well on the growth medium, they hatch out and begin feeding after a second period of about 24 hours, bringing the final amount of diffusion time for the subject compound to about 40-48 hours. A period of about 24-48 hours is sufficient for full diffusion of most compounds. […] Finally, each well is sealed with a sealing film such as “Aeraseal Sealing Film” (available from Sigma-Aldrich, St. Louis, Mo.; Sigma #A-9224). […]

[3] = 0.375 mg/ml of food, 1 molar glucose, FIG. 3
[4] = 0.75 mg/ml of food, 1 molar glucose, FIG. 3

O=C(CO)[C@@H](O)[C@H](O)[C@H](O)CO [fructose]
developmental delay induced (wild-type Drosophila [1]; Drosophila melanogaster): 48 h

O=C[C@H](O)[C@@H](O)[C@@H](O)[C@H](O)CO [galactose]
concentration at which toxicity is demonstrated (wild-type Drosophila [1]; Drosophila melanogaster): 0.3 M

N[C@H]1C(O)O[C@H](CO)[C@@H](O)[C@@H]1O (stereo partly shown) [glucosamine]
concentration inducing a developmental delay (as low as) (wild-type Drosophila [1]; Drosophila melanogaster): 3000 µM | developmental delay with progressively higher levels (wild-type Drosophila [1]): progressively longer developmental delays | larval emergence (wild-type Drosophila [1]): most larvae failed to emerge

COc1ccc(Cl)cc1C(=O)NCCc1ccc(S(=O)(=O)NC(=O)NC2CCCCC2)cc1 [glyburide]
significant levels of pupariation (wild-type Drosophila [2]; 0.25 mg per ml of growth media, no-drug 1 M glucose control approximately day 12): 8 days | high levels of pupariation (wild-type Drosophila [2]; 0.25 mg per ml of growth media, no-drug 1 M glucose control day 13-14): ≤ 10 days | high levels of pupariation (wild-type Drosophila [2]; 1 mg per ml of growth media): 11 days | significant levels of pupariation (wild-type Drosophila [2]; 1 mg per ml of growth media): 11 days | effect on glucose-mediated developmental delay / delay in pupariation (wild-type Drosophila [2]): demonstrated an ability to ameliorate glucose-mediated developmental delay; also recorded: reduced glucose-mediated delay in pupariation

CC(C)[C@H]1CC[C@H](C(=O)N[C@H](Cc2ccccc2)C(=O)O)CC1 [nateglinide]
effect on rate of development (wild-type Drosophila [2]; [3]): partially restored the rate of development | pupariation high rates beginning (wild-type Drosophila [2]; [3]): 9 days | effect on rate of development (wild-type Drosophila [2]; [4]): intermediate result | pupariation high levels beginning (wild-type Drosophila [2]; [4]): 9 days | effect on glucose-mediated developmental delay / delay in pupariation (wild-type Drosophila [2]): demonstrated an ability to ameliorate glucose-mediated developmental delay

OC[C@@H](O)[C@@H](O)[C@H](O)[C@@H](O)CO [sorbitol]
developmental delay induced (wild-type Drosophila [1]; Drosophila melanogaster): 48 h
